According to ChEMBL document CHEMBL5500400, “Design and Discovery of a Potent and Selective Inhibitor of Integrin αvβ1” (J Med Chem, 2024):

Experiments:
Integrin alpha-V/beta-1 = Integrin alpha-V/beta-1 (Homo sapiens, UniProt P05556+P06756); assay: Inhibition of recombinant human Integrin alphaVbeta1 using TMB as substrate incubated for 2 hrs in presence of fibronectin by ELISA; format: protein-complex assay
[1] = Apparent permeability across apical to basolateral side in dog MDCK-MDR1 cells incubated for 60 mins by HPLC analysis; format: ADME, cell-based, Canis lupus familiaris
[2] = Apparent permeability across basolateral to apical side in dog MDCK-MDR1 cells incubated for 60 mins by HPLC analysis; format: ADME, cell-based, Canis lupus familiaris
Integrin alpha-V/beta-3 = Integrin alpha-V/beta-3 (Homo sapiens, UniProt P05106+P06756); assay: Inhibition of recombinant human Integrin alphaVbeta3 using TMB as substrate incubated for 2 hrs in presence of vitronectin by ELISA; format: protein-complex assay
Integrin alpha-V/beta-3, sequence (P05106 27-788 limits assumed): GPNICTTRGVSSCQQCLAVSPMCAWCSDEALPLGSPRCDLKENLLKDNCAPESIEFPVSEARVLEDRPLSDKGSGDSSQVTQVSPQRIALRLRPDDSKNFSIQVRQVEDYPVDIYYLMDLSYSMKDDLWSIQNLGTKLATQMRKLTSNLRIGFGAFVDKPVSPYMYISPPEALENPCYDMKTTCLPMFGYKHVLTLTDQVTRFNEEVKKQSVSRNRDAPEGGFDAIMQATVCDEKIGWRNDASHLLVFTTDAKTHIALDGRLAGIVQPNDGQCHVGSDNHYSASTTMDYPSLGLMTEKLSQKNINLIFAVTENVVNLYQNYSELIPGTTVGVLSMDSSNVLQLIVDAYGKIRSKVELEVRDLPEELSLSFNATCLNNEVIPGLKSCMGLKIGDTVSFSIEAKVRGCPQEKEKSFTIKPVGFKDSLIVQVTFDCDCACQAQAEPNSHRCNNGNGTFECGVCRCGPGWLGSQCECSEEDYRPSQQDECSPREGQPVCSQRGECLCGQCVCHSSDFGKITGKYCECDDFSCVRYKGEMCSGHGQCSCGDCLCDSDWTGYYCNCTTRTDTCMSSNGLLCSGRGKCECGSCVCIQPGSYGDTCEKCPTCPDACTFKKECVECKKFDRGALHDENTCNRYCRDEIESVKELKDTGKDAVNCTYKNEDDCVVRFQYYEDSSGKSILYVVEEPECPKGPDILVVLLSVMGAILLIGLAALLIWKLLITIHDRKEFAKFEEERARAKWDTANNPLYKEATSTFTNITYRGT
Integrin alpha-V/beta-3, sequence (P06756 31-889 limits assumed): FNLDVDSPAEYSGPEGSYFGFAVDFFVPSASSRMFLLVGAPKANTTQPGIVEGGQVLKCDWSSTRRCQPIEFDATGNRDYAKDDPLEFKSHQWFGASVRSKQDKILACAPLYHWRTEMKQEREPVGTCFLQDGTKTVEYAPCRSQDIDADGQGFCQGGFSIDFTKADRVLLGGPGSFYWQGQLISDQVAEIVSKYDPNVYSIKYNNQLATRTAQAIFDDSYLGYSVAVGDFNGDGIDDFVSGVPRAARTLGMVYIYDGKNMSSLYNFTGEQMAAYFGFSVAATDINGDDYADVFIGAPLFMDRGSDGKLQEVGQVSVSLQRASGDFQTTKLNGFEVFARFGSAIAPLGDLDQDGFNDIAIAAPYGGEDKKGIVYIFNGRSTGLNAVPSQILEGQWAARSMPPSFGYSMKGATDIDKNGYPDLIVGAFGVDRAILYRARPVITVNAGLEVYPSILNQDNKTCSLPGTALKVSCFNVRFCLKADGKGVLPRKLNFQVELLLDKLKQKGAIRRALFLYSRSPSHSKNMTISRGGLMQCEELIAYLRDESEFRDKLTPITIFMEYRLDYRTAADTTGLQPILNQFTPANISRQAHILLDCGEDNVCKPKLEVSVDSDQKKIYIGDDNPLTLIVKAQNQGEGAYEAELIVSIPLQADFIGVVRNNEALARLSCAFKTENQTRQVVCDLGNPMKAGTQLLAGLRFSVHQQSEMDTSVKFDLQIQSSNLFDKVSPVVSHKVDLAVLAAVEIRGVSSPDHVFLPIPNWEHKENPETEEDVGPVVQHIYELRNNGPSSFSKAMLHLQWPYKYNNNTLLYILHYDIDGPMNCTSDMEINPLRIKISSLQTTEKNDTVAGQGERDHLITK
Integrin alpha-V/beta-3, sequence (P06756 891-1048 limits assumed): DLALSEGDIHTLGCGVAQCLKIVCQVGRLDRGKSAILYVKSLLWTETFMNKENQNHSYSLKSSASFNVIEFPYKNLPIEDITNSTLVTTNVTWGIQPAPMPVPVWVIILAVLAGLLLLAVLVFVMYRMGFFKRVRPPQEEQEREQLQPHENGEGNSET

Integrin alpha-V/beta-5 = Integrin alpha-V/beta-5 (Homo sapiens, UniProt P06756+P18084); assay: Inhibition of recombinant human Integrin alphaVbeta5 using TMB as substrate incubated for 2 hrs in presence of fibronectin by ELISA; format: protein-complex assay
Integrin alpha-V/beta-5, sequence (P06756 31-889 limits assumed): as the sequence (P06756 31-889 limits assumed) above
Integrin alpha-V/beta-5, sequence (P06756 891-1048 limits assumed): as the sequence (P06756 891-1048 limits assumed) above
Integrin alpha-V/beta-5, sequence (P18084 24-799 limits assumed): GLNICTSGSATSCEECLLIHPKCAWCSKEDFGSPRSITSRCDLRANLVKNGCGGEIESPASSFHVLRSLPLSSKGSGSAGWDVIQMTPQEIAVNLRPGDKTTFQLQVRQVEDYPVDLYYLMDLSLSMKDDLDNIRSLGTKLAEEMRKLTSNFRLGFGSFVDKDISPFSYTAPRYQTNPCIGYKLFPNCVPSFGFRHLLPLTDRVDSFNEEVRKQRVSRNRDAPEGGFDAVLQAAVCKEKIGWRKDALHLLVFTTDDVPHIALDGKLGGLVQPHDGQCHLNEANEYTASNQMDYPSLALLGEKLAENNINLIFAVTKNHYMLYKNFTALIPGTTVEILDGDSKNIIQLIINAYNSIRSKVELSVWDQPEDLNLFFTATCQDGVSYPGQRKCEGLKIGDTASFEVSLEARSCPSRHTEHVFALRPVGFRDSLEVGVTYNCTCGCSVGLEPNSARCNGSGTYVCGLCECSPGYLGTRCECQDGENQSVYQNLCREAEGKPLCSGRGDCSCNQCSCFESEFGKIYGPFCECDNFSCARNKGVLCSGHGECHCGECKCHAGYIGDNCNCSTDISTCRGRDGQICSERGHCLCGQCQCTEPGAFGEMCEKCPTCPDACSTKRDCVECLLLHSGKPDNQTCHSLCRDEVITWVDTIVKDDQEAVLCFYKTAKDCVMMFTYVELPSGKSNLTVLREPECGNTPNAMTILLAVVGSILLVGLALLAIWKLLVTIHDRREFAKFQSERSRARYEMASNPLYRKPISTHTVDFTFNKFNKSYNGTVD

Integrin alpha-V/beta-6 = Integrin alpha-V/beta-6 (Homo sapiens, UniProt P06756+P18564); assay: Inhibition of recombinant human Integrin alphaVbeta6 using TMB as substrate incubated for 2 hrs in presence of LAP by ELISA; format: protein-complex assay
Integrin alpha-V/beta-6, sequence (P06756 31-889 limits assumed): as the sequence (P06756 31-889 limits assumed) above
Integrin alpha-V/beta-6, sequence (P06756 891-1048 limits assumed): as the sequence (P06756 891-1048 limits assumed) above
Integrin alpha-V/beta-6, sequence (P18564 22-788 limits assumed): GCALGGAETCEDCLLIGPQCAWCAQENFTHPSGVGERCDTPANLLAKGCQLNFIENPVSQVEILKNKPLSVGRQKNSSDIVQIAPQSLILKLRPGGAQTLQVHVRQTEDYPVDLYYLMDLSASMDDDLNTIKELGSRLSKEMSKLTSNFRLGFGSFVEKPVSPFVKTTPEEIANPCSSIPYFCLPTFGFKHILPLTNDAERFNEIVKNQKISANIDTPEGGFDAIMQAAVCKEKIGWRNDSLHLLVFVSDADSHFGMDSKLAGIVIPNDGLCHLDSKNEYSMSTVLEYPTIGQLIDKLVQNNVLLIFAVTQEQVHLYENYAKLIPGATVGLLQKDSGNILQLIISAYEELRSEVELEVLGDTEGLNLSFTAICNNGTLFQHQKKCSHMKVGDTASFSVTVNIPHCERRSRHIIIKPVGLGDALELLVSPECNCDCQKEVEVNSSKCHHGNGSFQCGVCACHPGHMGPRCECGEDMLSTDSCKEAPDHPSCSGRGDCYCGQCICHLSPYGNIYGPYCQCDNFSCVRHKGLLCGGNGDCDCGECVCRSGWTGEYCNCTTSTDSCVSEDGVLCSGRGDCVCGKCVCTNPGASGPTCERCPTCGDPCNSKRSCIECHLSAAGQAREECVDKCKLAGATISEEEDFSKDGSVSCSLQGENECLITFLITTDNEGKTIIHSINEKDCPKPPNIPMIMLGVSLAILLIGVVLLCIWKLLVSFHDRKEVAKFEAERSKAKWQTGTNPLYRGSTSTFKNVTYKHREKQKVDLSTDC

Integrin alpha-V/beta-8 = Integrin alpha-V/beta-8 (Homo sapiens, UniProt P06756+P26012); assay: Inhibition of recombinant human Integrin alphaVbeta8 using TMB as substrate incubated for 2 hrs in presence of LAP by ELISA; format: protein-complex assay
Integrin alpha-V/beta-8, sequence (P06756 31-889 limits assumed): as the sequence (P06756 31-889 limits assumed) above
Integrin alpha-V/beta-8, sequence (P06756 891-1048 limits assumed): as the sequence (P06756 891-1048 limits assumed) above
Integrin alpha-V/beta-8, sequence (P26012 43-769 limits assumed): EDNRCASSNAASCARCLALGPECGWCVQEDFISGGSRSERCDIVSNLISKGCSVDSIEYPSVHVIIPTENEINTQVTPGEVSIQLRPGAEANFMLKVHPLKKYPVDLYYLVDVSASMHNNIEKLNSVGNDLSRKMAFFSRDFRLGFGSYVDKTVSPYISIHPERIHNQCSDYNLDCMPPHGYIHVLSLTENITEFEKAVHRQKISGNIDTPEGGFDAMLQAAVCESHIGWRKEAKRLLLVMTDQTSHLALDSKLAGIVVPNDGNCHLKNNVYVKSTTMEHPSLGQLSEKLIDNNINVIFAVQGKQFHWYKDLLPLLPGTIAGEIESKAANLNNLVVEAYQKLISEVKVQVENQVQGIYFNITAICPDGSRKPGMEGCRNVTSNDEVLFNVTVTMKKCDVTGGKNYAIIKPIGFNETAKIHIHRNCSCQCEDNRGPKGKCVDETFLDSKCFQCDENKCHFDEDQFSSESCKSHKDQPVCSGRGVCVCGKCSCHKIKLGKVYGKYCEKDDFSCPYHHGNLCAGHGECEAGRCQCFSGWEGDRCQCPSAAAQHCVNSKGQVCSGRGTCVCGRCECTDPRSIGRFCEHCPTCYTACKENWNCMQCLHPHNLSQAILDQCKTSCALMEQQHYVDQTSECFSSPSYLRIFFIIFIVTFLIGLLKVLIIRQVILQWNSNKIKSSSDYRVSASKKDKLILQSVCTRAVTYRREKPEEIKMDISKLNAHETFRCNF

Integrin alpha-4/beta-1 = Integrin alpha-4/beta-1 (Homo sapiens, UniProt P05556+P13612); assay: Inhibition of recombinant human Integrin alpha4beta1 using TMB as substrate incubated for 2 hrs in presence of VCAM-1 by ELISA; format: protein-complex assay
Integrin alpha-5/beta-1 = Integrin alpha-5/beta-1 (Homo sapiens, UniProt P05556+P08648); assay: Inhibition of recombinant human Integrin alpha5beta1 using TMB as substrate incubated for 2 hrs in presence of fibronectin by ELISA; format: protein-complex assay

Structure (SMILES) | IC50 (Integrin alpha-V/beta-1) [µM] | Papp A→B at 1 h [1] [×10⁻⁶ cm/s] | Papp B→A at 1 h [2] [×10⁻⁶ cm/s] | IC50 (Integrin alpha-V/beta-3) [µM] | IC50 (Integrin alpha-V/beta-5) [µM] | IC50 (Integrin alpha-V/beta-6) [µM] | IC50 (Integrin alpha-V/beta-8) [µM] | IC50 (Integrin alpha-4/beta-1) [µM] | IC50 (Integrin alpha-5/beta-1) [µM]
O=C(Cn1c(=O)[nH]c2ncccc21)NC[C@H](NC(=O)c1c(F)cccc1Cl)C(=O)O | 0.00501 | – | – | > 10 | > 10 | > 10 | 7.94 | 2.51 | 0.398
O=C(CN1C(=O)NCc2ccccc21)NC[C@H](NC(=O)c1ccccc1Cl)C(=O)O | 0.316 | – | – | – | – | – | – | – | –
O=C(Cn1c(=O)[nH]c2ncccc21)NC[C@H](NC(=O)c1ccccc1Cl)C(=O)O | 0.0126 | – | – | > 10 | > 10 | 0.501 | > 10 | 3.16 | 0.631
O=C(Cn1c(=O)[nH]c2ncccc21)NC[C@H](NC(=O)c1c(F)cc(-c2ccccc2)cc1Cl)C(=O)O | 0.0316 | – | – | > 10 | > 10 | > 10 | 6.31 | > 10 | 0.631
O=C(NC(Cc1ccccc1)C(=O)O)c1ccc(Cl)cc1Cl (stereo not given) | 5.01 | – | – | > 31.6 | > 31.6 | > 31.6 | > 31.6 | – | > 31.6
O=C(Cn1cnc2ccccc21)NC[C@H](NC(=O)c1ccccc1Cl)C(=O)O | > 10 | – | – | – | – | – | – | – | –
O=C(Cn1c(=O)[nH]c2ccccc21)NC[C@H](NC(=O)c1c(Cl)cccc1Cl)C(=O)O | 0.02 | – | – | > 10 | > 10 | > 10 | > 10 | 2 | 1.26

These reach a lower IC50 (Integrin alpha-V/beta-1). Values come first.

IC50 (Integrin alpha-V/beta-1) [µM] | Papp A→B at 1 h [1] [×10⁻⁶ cm/s] | Papp B→A at 1 h [2] [×10⁻⁶ cm/s] | IC50 (Integrin alpha-V/beta-3) [µM] | IC50 (Integrin alpha-V/beta-5) [µM] | IC50 (Integrin alpha-V/beta-6) [µM] | IC50 (Integrin alpha-V/beta-8) [µM] | IC50 (Integrin alpha-4/beta-1) [µM] | IC50 (Integrin alpha-5/beta-1) [µM] | Structure (SMILES)
0.00398 | – | – | > 10 | > 10 | > 10 | 6.31 | 3.16 | 0.398 | O=C(Cn1c(=O)[nH]c2ncccc21)NC[C@H](NC(=O)c1c(Cl)cccc1Cl)C(=O)O
0.00126 | – | – | > 10 | > 10 | 6.31 | 3.98 | 5.01 | 0.158 | COc1cc(F)c(C(=O)N[C@@H](CNC(=O)Cn2c(=O)[nH]c3ncccc32)C(=O)O)c(Cl)c1
0.000631 | 1.2 | 1.2 | – | – | – | – | – | – | COc1ccc(Cl)c(C(=O)N[C@@H](CNC(=O)Cn2c(=O)[nH]c3ccncc32)C(=O)O)c1F
0.000631 | – | – | 5.01 | 3.98 | 3.98 | 2 | 1.58 | 0.0631 | Cc1ccc(Cl)c(C(=O)N[C@@H](CNC(=O)Cn2c(=O)[nH]c3ncccc32)C(=O)O)c1F
0.000631 | 0.9 | 0.7 | – | – | – | – | – | – | Cc1ccc(Cl)c(C(=O)N[C@@H](CNC(=O)Cn2c(=O)[nH]c3ncncc32)C(=O)O)c1F
0.000631 | – | – | > 10 | > 10 | 3.16 | 1.58 | 1.58 | 0.251 | COc1ccc(Cl)c(C(=O)N[C@@H](CNC(=O)Cn2c(=O)[nH]c3ncccc32)C(=O)O)c1F
